From US20240287154A1, “MC3R AGONIST PEPTIDES” (The Regents of the University of Michigan, priority 2021, published 2024)
Non-standard residues stand in square brackets, D forms with d. Residues, ends and D or L forms follow the SMILES beside them. d(αMeW) = C[C@@](N)(Cc1c[nH]c2ccccc12)C(=O)O; Phe(4-I) = N[C@@H](Cc1ccc(I)cc1)C(=O)O; Nle = CCCC[C@H](N)C(=O)O

Target: human MC4R (Homo sapiens, UniProt P32245)
Assay: Intracellular cAMP levels in live cells, MC3R selectivity relative to MC4R
Assay type: cell-based
Details: cAMP assays in human MC3R and human MC4R stable cell lines
Method: The stable cell lines were grown and maintained in selection media consisting of Dulbecco's modified Eagle media (DMEM) with 4.5 g/l D-glucose, and 4 mM L-glutamine (Thermo Fisher Scientific, Waltham, MA), supplemented with 10% fetal bovine serum, 100 units/ml penicillin, 100 μg/ml streptomycin, 2.5 μg/ml amphotericin B, 200 μg/ml hygromycin B (for positive selection of the GScAMP22f luciferase reporter), and Geneticin™ (G418) 700 μg/ml (for MC3R or MC4R selection). Actual serum concentration during the assay is estimated to be about 1%. Cell line identity is routinely verified by qPCR and MC3R- and MC4R-specific oligonucleotides.
The assay for the determination of the CAMP response in live cells was described previously. […] Ccells were seeded at a density of 20,000 cells per well using 384-well poly-D lysine-coated, clear bottom, and black-wall assay plates (Corning Inc. Corning, NJ). Cells were allowed to attach to the plates for 18 to 24 h after which growth media was removed and 20 ul of 4% D-luciferin (Promega) in CO2 independent, serum-free medium (Thermo Fisher Scientific) was added to each well. […] Intracellular cAMP levels were measured using an FDSS 7000EX Functional Drug Screening System (Hamamatsu Photonics, Hamamatsu, Japan) in the Center for Chemical Genomics at the Life Sciences Institute. This instrument allowed the in-line addition of test-peptides and receptor agonists while simultaneously acquiring the luminescence signal from live cells. […] A submaximal forskolin (20 μM) concentration was also included to serve as a normalization reference to account for cell number variations and differences in assay transducer efficiency between cell lines.
With this set up it was possible to evaluate the direct agonist effect of the test-peptides on the MC3R and MC4R cell lines during measurement window 1, while the antagonist profile in the presence of EC90 α-MSH was determined on measurement window 2. […] EC50 or IC50 potency values were determined by non-linear regression by fitting the data to a sigmoid four-parameter variable slope model using the GraphPad Prism version 8.4 software package (San Diego CA).

Chain of human MC4R (P32245 whole entry): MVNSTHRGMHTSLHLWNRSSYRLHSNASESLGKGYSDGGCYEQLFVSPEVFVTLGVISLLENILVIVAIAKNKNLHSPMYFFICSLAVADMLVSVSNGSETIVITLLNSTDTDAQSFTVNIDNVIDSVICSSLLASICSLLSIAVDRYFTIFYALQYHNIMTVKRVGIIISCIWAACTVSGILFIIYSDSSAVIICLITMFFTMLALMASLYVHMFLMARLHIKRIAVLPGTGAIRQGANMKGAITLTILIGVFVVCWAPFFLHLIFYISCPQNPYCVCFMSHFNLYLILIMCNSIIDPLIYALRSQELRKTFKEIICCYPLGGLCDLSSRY

| SMILES | MC3R selectivity (relative to MC4R) |
| --- | --- |
| CCCC[C@H](NC(C)=O)C(=O)N[C@H](C)C(=O)N[C@@H](Cc1c[nH]cn1)C(=O)N[C@@H](Cc1ccc(I)cc1)C(=O)N[C@H](CCCNC(=N)N)C(=O)N[C@@H](Cc1c[nH]c2ccccc12)C(=O)N[C@@H](CC(=O)O)C(=O)N[C@@H](CCCNC(=N)N)C(=O)N[C@@H](Cc1ccccc1)C(=O)NCC(=O)O [CTX-1501, Nle-D-Ala-His-Phe(4-I)-D-Arg-Trp-Asp-Arg-Phe-Gly] (Ac-[Nle][dA]H[Phe(4-I)][dR]WDRFG-OH) | 0.01 |
| CCCC[C@H](NC(C)=O)C(=O)N[C@H](C)C(=O)N[C@@H](Cc1c[nH]cn1)C(=O)N[C@@H](Cc1ccc(I)cc1)C(=O)N[C@@H](CCCNC(=N)N)C(=O)N[C@H](Cc1ccccc1)C(=O)N[C@@H](CC(=O)O)C(=O)N[C@@H](CCCNC(=N)N)C(=O)N[C@@H](Cc1ccccc1)C(=O)NCC(=O)O [CTX-1503, Nle-D-Ala-His-Phe(4-I)-Arg-D-Phe-Asp-Arg-Phe-Gly] (Ac-[Nle][dA]H[Phe(4-I)]R[dF]DRFG-OH) | 214 |
| CCCC[C@H](NC(C)=O)C(=O)N[C@H](C)C(=O)N[C@@H](Cc1c[nH]cn1)C(=O)N[C@@H](Cc1ccccc1)C(=O)N[C@@H](CCCNC(=N)N)C(=O)N[C@](C)(Cc1c[nH]c2ccccc12)C(=O)N[C@@H](CC(=O)O)C(=O)N[C@@H](CCCNC(=N)N)C(=O)N[C@@H](Cc1ccccc1)C(=O)NCC(=O)O [CTX-1510, Nle-D-Ala-His-Phe-Arg-aMe-D-Trp-Asp-Arg-Phe-Gly] (Ac-[Nle][dA]HFR[d(αMeW)]DRFG-OH) | 23 |
| CCCC[C@H](NC(C)=O)C(=O)N[C@H](C)C(=O)N[C@@H](Cc1c[nH]cn1)C(=O)N[C@@H](Cc1ccccc1)C(=O)N[C@@H](CCCCN)C(=O)N[C@H](Cc1c[nH]c2ccccc12)C(=O)N[C@@H](CC(=O)O)C(=O)N[C@@H](CCCNC(=N)N)C(=O)N[C@@H](Cc1ccccc1)C(=O)NCC(=O)O [CTX-1523, Nle-D-Ala-His-Phe-Lys-D-Trp-Asp-Arg-Phe-Gly] (Ac-[Nle][dA]HFK[dW]DRFG-OH) | 5,321 |
| CCCC[C@H](NC(C)=O)C(=O)N[C@H](C)C(=O)N[C@@H](Cc1c[nH]cn1)C(=O)N[C@@H](Cc1ccccc1)C(=O)N[C@@H](CCCNC(=N)N)C(=O)N[C@H](Cc1c[nH]c2ccccc12)C(=O)N[C@H](Cc1ccccc1)C(=O)N[C@@H](CCCNC(=N)N)C(=O)N[C@@H](Cc1ccccc1)C(=O)NCC(=O)O [CTX-1530, Nle-D-Ala-His-Phe-Arg-D-Trp-D-Phe-Arg-Phe-Gly] (Ac-[Nle][dA]HFR[dW][dF]RFG-OH) | 15 |
| CCCC[C@H](NC(C)=O)C(=O)N[C@H](C)C(=O)N[C@@H](Cc1c[nH]cn1)C(=O)N[C@@H](Cc1ccccc1)C(=O)N[C@@H](CCCNC(=N)N)C(=O)N[C@H](Cc1c[nH]c2ccccc12)C(=O)N[C@@H](CCCC)C(=O)N[C@@H](CCCNC(=N)N)C(=O)N[C@@H](Cc1ccccc1)C(=O)NCC(=O)O [CTX-1532, Nle-D-Ala-His-Phe-Arg-D-Trp-Nle-Arg-Phe-Gly] (Ac-[Nle][dA]HFR[dW][Nle]RFG-OH) | 184 |
| CCCC[C@H](NC(C)=O)C(=O)N[C@H](C)C(=O)N[C@@H](Cc1c[nH]cn1)C(=O)N[C@@H](Cc1ccccc1)C(=O)N[C@@H](CCCNC(=N)N)C(=O)N[C@H](Cc1c[nH]c2ccccc12)C(=O)N[C@@H](CCCCN)C(=O)N[C@@H](CCCNC(=N)N)C(=O)N[C@@H](Cc1ccccc1)C(=O)NCC(=O)O [CTX-1533, Nle-D-Ala-His-Phe-Arg-D-Trp-Lys-Arg-Phe-Gly] (Ac-[Nle][dA]HFR[dW]KRFG-OH) | 314 |
| CCCC[C@H](NC(C)=O)C(=O)N[C@H](C)C(=O)N[C@@H](Cc1c[nH]cn1)C(=O)N[C@@H](Cc1ccccc1)C(=O)N[C@@H](CCCNC(=N)N)C(=O)N[C@H](Cc1c[nH]c2ccccc12)C(=O)N[C@@H](CC(=O)O)C(=O)N[C@@H](C)C(=O)N[C@@H](Cc1ccccc1)C(=O)NCC(=O)O [CTX-1534, Nle-D-Ala-His-Phe-Arg-D-Trp-Asp-Ala-Phe-Gly] (Ac-[Nle][dA]HFR[dW]DAFG-OH) | 186 |
| CCCC[C@H](NC(C)=O)C(=O)N[C@H](C)C(=O)N[C@@H](Cc1c[nH]cn1)C(=O)N[C@@H](Cc1ccccc1)C(=O)N[C@@H](CCCNC(=N)N)C(=O)N[C@H](Cc1c[nH]c2ccccc12)C(=O)N[C@@H](CC(=O)O)C(=O)N[C@@H](CCCCN)C(=O)N[C@@H](Cc1ccccc1)C(=O)NCC(=O)O [CTX-1535, Nle-D-Ala-His-Phe-Arg-D-Trp-Asp-Lys-Phe-Gly] (Ac-[Nle][dA]HFR[dW]DKFG-OH) | 1,589 |
| CCCC[C@H](NC(C)=O)C(=O)N[C@H](C)C(=O)N[C@@H](Cc1c[nH]cn1)C(=O)N[C@@H](Cc1ccccc1)C(=O)N[C@@H](CCCNC(=N)N)C(=O)N[C@H](Cc1c[nH]c2ccccc12)C(=O)N[C@@H](CC(=O)O)C(=O)N[C@@H](CCCNC(=N)N)C(=O)N1CCC[C@H]1C(=O)NCC(=O)O [CTX-1536, Nle-D-Ala-His-Phe-Arg-D-Trp-Asp-Arg-Pro-Gly] (Ac-[Nle][dA]HFR[dW]DRPG-OH) | 72 |
| CCCC[C@H](NC(C)=O)C(=O)N[C@H](C)C(=O)N[C@@H](Cc1c[nH]cn1)C(=O)N[C@@H](Cc1ccccc1)C(=O)N[C@@H](CCCNC(=N)N)C(=O)N[C@H](Cc1c[nH]c2ccccc12)C(=O)N[C@@H](CC(=O)O)C(=O)N[C@@H](CCCNC(=N)N)C(=O)N[C@@H](C)C(=O)NCC(=O)O [CTX-1537, Nle-D-Ala-His-Phe-Arg-D-Trp-Asp-Arg-Ala-Gly] (Ac-[Nle][dA]HFR[dW]DRAG-OH) | 278 |
| CCCC[C@H](NC(C)=O)C(=O)N[C@H](C)C(=O)N[C@@H](Cc1c[nH]cn1)C(=O)N[C@@H](Cc1ccccc1)C(=O)N[C@@H](CCCNC(=N)N)C(=O)N[C@H](Cc1c[nH]c2ccccc12)C(=O)N[C@@H](CC(=O)O)C(=O)N[C@@H](CCCNC(=N)N)C(=O)N[C@@H](Cc1ccccc1)C(=O)N[C@H](C(=O)O)C(C)C [CTX-1538, Nle-D-Ala-His-Phe-Arg-D-Trp-Asp-Arg-Phe-Val] (Ac-[Nle][dA]HFR[dW]DRFV-OH) | 1,276 |
| CCCC[C@H](NC(C)=O)C(=O)N[C@H](C)C(=O)N[C@@H](Cc1c[nH]cn1)C(=O)N[C@@H](Cc1ccccc1)C(=O)N[C@@H](CCCNC(=N)N)C(=O)N[C@H](Cc1c[nH]c2ccccc12)C(N)=O [CTX-1539, Nle-D-Ala-His-Phe-Arg-D-Trp] (Ac-[Nle][dA]HFR[dW]-NH2) | 16 |
| CCCC[C@H](NC(C)=O)C(=O)N[C@H](C)C(=O)N[C@@H](Cc1c[nH]cn1)C(=O)N[C@@H](Cc1ccccc1)C(=O)N[C@@H](CCCNC(=N)N)C(=O)N[C@H](Cc1c[nH]c2ccccc12)C(=O)NCC(N)=O [CTX-1540, Nle-D-Ala-His-Phe-Arg-D-Trp-Gly] (Ac-[Nle][dA]HFR[dW]G-NH2) | 11 |
| CCCC[C@H](NC(C)=O)C(=O)N[C@H](C)C(=O)N[C@@H](Cc1c[nH]cn1)C(=O)N[C@@H](Cc1ccccc1)C(=O)N[C@@H](CCCNC(=N)N)C(=O)N[C@H](Cc1c[nH]c2ccccc12)C(=O)N[C@@H](Cc1ccccc1)C(N)=O [CTX-1541, Nle-D-Ala-His-Phe-Arg-D-Trp-Phe] (Ac-[Nle][dA]HFR[dW]F-NH2) | 9 |
| CCCC[C@H](NC(C)=O)C(=O)N[C@H](C)C(=O)N[C@@H](Cc1c[nH]cn1)C(=O)N[C@@H](Cc1ccccc1)C(=O)N[C@@H](CCCNC(=N)N)C(=O)N[C@H](Cc1c[nH]c2ccccc12)C(=O)N[C@H](Cc1ccccc1)C(N)=O [CTX-1542, Nle-D-Ala-His-Phe-Arg-D-Trp-D-Phe] (Ac-[Nle][dA]HFR[dW][dF]-NH2) | 15 |
